Counter-ions that a name gives are not always drawn.
Tested on: E. coli expressing both β-D-glucuronidase and β-D-galactosidase
Test: broth media in the presence of ONPG
Assay type: cell-based
Settings: ONPG 1.5 g/L, broth with FAC
Protocol: The two indoxyl glucuronides used produce insoluble endpoints following hydrolysis, as does the CPS ID 3 medium. It was therefore necessary to test these two substrates on agar plates. In contrast, catechol-β-D-glucuronide (1) and DHN-β-D-glucuronide (2b) give much more soluble endpoints best suited to liquid media and were therefore tested in a broth medium. Each broth was prepared using proteose peptone (Oxoid, Basingstoke, UK) (2 g), NaCl (1 g) and FAC (100 mg) in DI water (180 mL). This mixture was autoclaved and cooled to room temperature before being dispensed into bijoux (100×1.8 mL). Catechol β-D-glucuronide CHA salt (1) or DHN-β-D-glucuronide CHA salt (2b) (60 mg) were each dissolved in water (20 mL) and filtered to sterilize before being aseptically dispensed into successive bijoux (0.2 mL) containing the broth solution. […]
Because many E. coli produce both β-D-glucuronidase and β-D-galactosidase, catechol-β-D-glucuronide (1) and DHN-β-D-glucuronide (2b) were tested as in the broth media described above but in the presence of o-nitrophenyl-β-D-galactoside (ONPG) (at a concentration of 1.5 g/L). […] With either substrate, the colour of these solutions of mixed chromogens could be very readily distinguished with the unaided eye from the yellow colour of those strains, such as E. cloacae, that produced β-D-galactosidase only. […]

SMILES	colour of solutions in the presence of ONPG
O=C(O)C1OC(Oc2cc3ccccc3cc2O)C(O)C(O)C1O [Compound 2b, DHN-β-D-Glucuronide CHA Salt]	purple-brown solutions
O=C(O)C1OC(Oc2ccccc2O)C(O)C(O)C1O [Compound 1, Catechol β-D-Glucuronide CHA Salt]	greyish-black solutions

Source: patent publication US9879303B2, “Chromogenic glucuronidase substrates and uses” (Glycosynth Limited, priority 2013, dated 2018)
